# Peptide text beside a SMILES is read from it.
# How the values were obtained:
# HDAC2 = molecular target: T1, HDAC2 (Homo sapiens, UniProt Q92769); test: HDAC2 inhibition, full IC50 measurement (Reaction Biology; fluorogenic p53 peptide RHKK(Ac)AMC); format: biochemical
# T1 construct: purchased Reaction Biology Corporation (assay run by the CRO)
# In short: (§1)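 Reaction: enzyme plus acoustically dispensed peptide inhibitor, 50 μM RHKK(Ac)AMC substrate, pH 8.0 Tris buffer with BSA and 1% DMSO, 1 h, 30 °C. Duplicates averaged.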
# HDAC1 = molecular target: T2, HDAC1 (Homo sapiens, UniProt Q13547); test: HDAC1 inhibition, full IC50 measurement (Reaction Biology; fluorogenic p53 peptide RHKK(Ac)AMC); format: biochemical; conditions: t1/t2 replicates
# T2 construct: purchased Reaction Biology Corporation (assay run by the CRO)
# T2 sequence (Q13547 whole entry): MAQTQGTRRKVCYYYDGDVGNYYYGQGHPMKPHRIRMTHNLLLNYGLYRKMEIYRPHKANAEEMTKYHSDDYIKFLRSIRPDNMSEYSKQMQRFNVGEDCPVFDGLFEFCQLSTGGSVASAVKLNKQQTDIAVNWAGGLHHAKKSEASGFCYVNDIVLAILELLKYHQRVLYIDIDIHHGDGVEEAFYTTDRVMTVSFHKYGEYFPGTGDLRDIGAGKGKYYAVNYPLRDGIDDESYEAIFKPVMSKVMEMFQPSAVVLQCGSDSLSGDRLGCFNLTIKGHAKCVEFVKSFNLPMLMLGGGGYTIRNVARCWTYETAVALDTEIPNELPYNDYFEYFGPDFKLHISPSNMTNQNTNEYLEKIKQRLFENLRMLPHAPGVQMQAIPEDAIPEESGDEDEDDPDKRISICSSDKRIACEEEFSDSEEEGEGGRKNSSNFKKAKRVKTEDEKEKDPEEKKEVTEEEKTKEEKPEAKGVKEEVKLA
# In short: as §1
# T1 sequence (Q92769 whole entry): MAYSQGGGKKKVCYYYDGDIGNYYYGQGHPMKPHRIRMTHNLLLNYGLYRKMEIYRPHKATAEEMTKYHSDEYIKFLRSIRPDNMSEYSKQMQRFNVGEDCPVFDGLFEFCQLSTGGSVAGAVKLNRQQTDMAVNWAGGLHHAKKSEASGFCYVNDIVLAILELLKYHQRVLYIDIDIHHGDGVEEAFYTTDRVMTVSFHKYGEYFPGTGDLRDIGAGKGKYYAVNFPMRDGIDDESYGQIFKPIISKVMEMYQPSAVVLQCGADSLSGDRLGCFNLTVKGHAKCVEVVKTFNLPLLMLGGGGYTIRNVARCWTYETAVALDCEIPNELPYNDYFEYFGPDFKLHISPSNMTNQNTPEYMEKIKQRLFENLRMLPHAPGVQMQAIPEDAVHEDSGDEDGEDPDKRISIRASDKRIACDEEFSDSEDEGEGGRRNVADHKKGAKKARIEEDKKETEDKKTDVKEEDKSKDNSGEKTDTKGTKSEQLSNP
smiles,measurement,setting,value
"CC(C)C[C@H]1NC(=O)[C@H](Cc2c[nH]c3ccccc23)NC(=O)[C@H](CCCCCS)NC(=O)[C@@H](Cc2ccc(O)cc2)NC(=O)[C@@H](C(C)C)NC(=O)[C@H](Cc2c[nH]cn2)NC(=O)CNC(=O)CNC(=O)[C@@H](CO)NC1=O [des2.2.0, SHA-Trp-dLeu-dSer-Gly-Gly-His-dVal-dTyr] (HELM PEPTIDE1{G.G.H.[dV].[dY].[O=C([C@H](CCCCCS)N[*:1])[*:2]].W.[dL].[dS]}$PEPTIDE1,PEPTIDE1,1:R1-9:R2$$$V2.0)",HDAC2 activity raw data (signal),"HDAC2; Conc. 1.00E-05 M, t1",686926
same,HDAC2 activity raw data (signal),"HDAC2; Conc. 1.00E-05 M, t2",755168
same,HDAC2 activity raw data (signal),"HDAC2; Conc. 1.11E-06 M, t1",808545
same,HDAC2 activity raw data (signal),"HDAC2; Conc. 1.11E-06 M, t2",1100762
same,HDAC2 activity raw data (signal),"HDAC2; Conc. 1.23E-07 M, t1",837329
same,HDAC2 activity raw data (signal),"HDAC2; Conc. 1.23E-07 M, t2",1005687
same,HDAC2 activity raw data (signal),"HDAC2; Conc. 1.37E-08 M, t1",715440
same,HDAC2 activity raw data (signal),"HDAC2; Conc. 1.37E-08 M, t2",821926
same,HDAC2 activity raw data (signal),"HDAC2; Conc. 1.52E-09 M, t1",554743
same,HDAC2 activity raw data (signal),"HDAC2; Conc. 1.52E-09 M, t2",656599
same,HDAC2 activity raw data (signal),"HDAC2; Conc. 3.33E-06 M, t1",690169
same,HDAC2 activity raw data (signal),"HDAC2; Conc. 3.33E-06 M, t2",996724
same,HDAC2 activity raw data (signal),"HDAC2; Conc. 3.70E-07 M, t1",822571
same,HDAC2 activity raw data (signal),"HDAC2; Conc. 3.70E-07 M, t2",1061380
same,HDAC2 activity raw data (signal),"HDAC2; Conc. 4.12E-08 M, t1",840443
same,HDAC2 activity raw data (signal),"HDAC2; Conc. 4.12E-08 M, t2",955487
same,HDAC2 activity raw data (signal),"HDAC2; Conc. 4.57E-09 M, t1",679123
same,HDAC2 activity raw data (signal),"HDAC2; Conc. 4.57E-09 M, t2",728514
same,HDAC2 activity raw data (signal),"HDAC2; Conc. 5.08E-10 M, t1",632244
same,HDAC2 activity raw data (signal),"HDAC2; Conc. 5.08E-10 M, t2",668167
same,HDAC1 activity raw data (signal),"HDAC1; peptide conc. 1.00E-05 M, listed as des2.2.0_t1",393754
same,HDAC1 activity raw data (signal),"HDAC1; peptide conc. 1.00E-05 M, listed as des2.2.0_t2",398456
same,HDAC1 activity raw data (signal),"HDAC1; peptide conc. 1.11E-06 M, listed as des2.2.0_t1",771529
same,HDAC1 activity raw data (signal),"HDAC1; peptide conc. 1.11E-06 M, listed as des2.2.0_t2",714587
same,HDAC1 activity raw data (signal),"HDAC1; peptide conc. 1.23E-07 M, listed as des2.2.0_t1",815475
same,HDAC1 activity raw data (signal),"HDAC1; peptide conc. 1.23E-07 M, listed as des2.2.0_t2",811874
same,HDAC1 activity raw data (signal),"HDAC1; peptide conc. 1.37E-08 M, listed as des2.2.0_t1",879707
same,HDAC1 activity raw data (signal),"HDAC1; peptide conc. 1.37E-08 M, listed as des2.2.0_t2",762845
same,HDAC1 activity raw data (signal),"HDAC1; peptide conc. 1.52E-09 M, listed as des2.2.0_t1",835131
same,HDAC1 activity raw data (signal),"HDAC1; peptide conc. 1.52E-09 M, listed as des2.2.0_t2",788807
same,HDAC1 activity raw data (signal),"HDAC1; peptide conc. 3.33E-06 M, listed as des2.2.0_t1",631956
same,HDAC1 activity raw data (signal),"HDAC1; peptide conc. 3.33E-06 M, listed as des2.2.0_t2",567009
same,HDAC1 activity raw data (signal),"HDAC1; peptide conc. 3.70E-07 M, listed as des2.2.0_t1",777508
same,HDAC1 activity raw data (signal),"HDAC1; peptide conc. 3.70E-07 M, listed as des2.2.0_t2",771678
same,HDAC1 activity raw data (signal),"HDAC1; peptide conc. 4.12E-08 M, listed as des2.2.0_t1",776525
same,HDAC1 activity raw data (signal),"HDAC1; peptide conc. 4.12E-08 M, listed as des2.2.0_t2",821518
same,HDAC1 activity raw data (signal),"HDAC1; peptide conc. 4.57E-09 M, listed as des2.2.0_t1",820973
same,HDAC1 activity raw data (signal),"HDAC1; peptide conc. 4.57E-09 M, listed as des2.2.0_t2",805068
same,HDAC1 activity raw data (signal),"HDAC1; peptide conc. 5.08E-10 M, listed as des2.2.0_t1",825935
same,HDAC1 activity raw data (signal),"HDAC1; peptide conc. 5.08E-10 M, listed as des2.2.0_t2",859992
"CSCC[C@H]1NC(=O)[C@@H](CO)NC(=O)[C@H](CC(N)=O)NC(=O)[C@H](CC(=O)O)NC(=O)[C@@H]([C@H](C)O)NC(=O)[C@H](Cc2c[nH]c3ccccc23)NC(=O)[C@H](CCCCCS)NC(=O)[C@H](CCCCN)NC(=O)[C@@H](CC(=O)O)NC1=O [des2.1.1, SHA-Trp-dThr-Asp-Asn-dSer-dMet-dAsp-Lys] (HELM PEPTIDE1{D.N.[dS].[dM].[dD].K.[O=C([C@H](CCCCCS)N[*:1])[*:2]].W.[dT]}$PEPTIDE1,PEPTIDE1,1:R1-9:R2$$$V2.0)",HDAC2 activity raw data (signal),"HDAC2; Conc. 1.00E-05 M, t1",-452
same,HDAC2 activity raw data (signal),"HDAC2; Conc. 1.00E-05 M, t2",-1036
same,HDAC2 activity raw data (signal),"HDAC2; Conc. 1.11E-06 M, t1",33890
same,HDAC2 activity raw data (signal),"HDAC2; Conc. 1.11E-06 M, t2",38279
same,HDAC2 activity raw data (signal),"HDAC2; Conc. 1.23E-07 M, t1",186095
same,HDAC2 activity raw data (signal),"HDAC2; Conc. 1.23E-07 M, t2",182790
same,HDAC2 activity raw data (signal),"HDAC2; Conc. 1.37E-08 M, t1",599694
same,HDAC2 activity raw data (signal),"HDAC2; Conc. 1.37E-08 M, t2",552663
same,HDAC2 activity raw data (signal),"HDAC2; Conc. 1.52E-09 M, t1",969892
same,HDAC2 activity raw data (signal),"HDAC2; Conc. 1.52E-09 M, t2",886346
same,HDAC2 activity raw data (signal),"HDAC2; Conc. 3.33E-06 M, t1",19780
same,HDAC2 activity raw data (signal),"HDAC2; Conc. 3.33E-06 M, t2",13124
same,HDAC2 activity raw data (signal),"HDAC2; Conc. 3.70E-07 M, t1",88233
same,HDAC2 activity raw data (signal),"HDAC2; Conc. 3.70E-07 M, t2",84596
same,HDAC2 activity raw data (signal),"HDAC2; Conc. 4.12E-08 M, t1",374430
same,HDAC2 activity raw data (signal),"HDAC2; Conc. 4.12E-08 M, t2",356371
same,HDAC2 activity raw data (signal),"HDAC2; Conc. 4.57E-09 M, t1",827090
same,HDAC2 activity raw data (signal),"HDAC2; Conc. 4.57E-09 M, t2",782443
same,HDAC2 activity raw data (signal),"HDAC2; Conc. 5.08E-10 M, t1",1119506
same,HDAC2 activity raw data (signal),"HDAC2; Conc. 5.08E-10 M, t2",1036443
same,IC50,"HDAC2; figure legends, Supp. Table 1, read-out: HDAC2 IC50",16.3 nM
same,HDAC1 activity raw data (signal),"HDAC1; peptide conc. 1.00E-05 M, listed as des2.1.1_t1",-3296
same,HDAC1 activity raw data (signal),"HDAC1; peptide conc. 1.00E-05 M, listed as des2.1.1_t2",-5
same,HDAC1 activity raw data (signal),"HDAC1; peptide conc. 1.11E-06 M, listed as des2.1.1_t1",15027
same,HDAC1 activity raw data (signal),"HDAC1; peptide conc. 1.11E-06 M, listed as des2.1.1_t2",19517
same,HDAC1 activity raw data (signal),"HDAC1; peptide conc. 1.23E-07 M, listed as des2.1.1_t1",121250
same,HDAC1 activity raw data (signal),"HDAC1; peptide conc. 1.23E-07 M, listed as des2.1.1_t2",94143
same,HDAC1 activity raw data (signal),"HDAC1; peptide conc. 1.37E-08 M, listed as des2.1.1_t1",426941
same,HDAC1 activity raw data (signal),"HDAC1; peptide conc. 1.37E-08 M, listed as des2.1.1_t2",417070
same,HDAC1 activity raw data (signal),"HDAC1; peptide conc. 1.52E-09 M, listed as des2.1.1_t1",888087
same,HDAC1 activity raw data (signal),"HDAC1; peptide conc. 1.52E-09 M, listed as des2.1.1_t2",854689
same,HDAC1 activity raw data (signal),"HDAC1; peptide conc. 3.33E-06 M, listed as des2.1.1_t1",5417
same,HDAC1 activity raw data (signal),"HDAC1; peptide conc. 3.33E-06 M, listed as des2.1.1_t2",8523
same,HDAC1 activity raw data (signal),"HDAC1; peptide conc. 3.70E-07 M, listed as des2.1.1_t1",47109
same,HDAC1 activity raw data (signal),"HDAC1; peptide conc. 3.70E-07 M, listed as des2.1.1_t2",41206
same,HDAC1 activity raw data (signal),"HDAC1; peptide conc. 4.12E-08 M, listed as des2.1.1_t1",257706
same,HDAC1 activity raw data (signal),"HDAC1; peptide conc. 4.12E-08 M, listed as des2.1.1_t2",221039
same,HDAC1 activity raw data (signal),"HDAC1; peptide conc. 4.57E-09 M, listed as des2.1.1_t1",716596
same,HDAC1 activity raw data (signal),"HDAC1; peptide conc. 4.57E-09 M, listed as des2.1.1_t2",664253
same,HDAC1 activity raw data (signal),"HDAC1; peptide conc. 5.08E-10 M, listed as des2.1.1_t1",1042274
same,HDAC1 activity raw data (signal),"HDAC1; peptide conc. 5.08E-10 M, listed as des2.1.1_t2",995234

# From paper PMC8185074, “Anchor extension: a structure-guided approach to design cyclic peptides targeting enzyme active sites” (Nature Communications, 2021)
